Experimental data published in article PMC6152127, “Facile Synthesis of Novel Coumarin Derivatives, Antimicrobial Analysis, Enzyme Assay, Docking Study, ADMET Prediction and Toxicity Study” (Molecules : A Journal of Synthetic Chemistry and Natural …, 2017).
Converted amounts (≈) assume the structure as drawn.

Legend:
[1] = tested on: HeLa (Human cervical cancer cell line); test: In vitro cytotoxicity, Sulforhodamine B (SRB) assay; type: cell-based; settings: for GI50: Homo sapiens, HeLa, SRB assay, concentration range 50 to 0.78 μg/mL
Procedure: To examine the safety of the synthesized compounds, the compounds 4e and 4k were evaluated for their toxicity against the HeLa human cervical cancer cell line by a Sulforhodamine B (SRB) assay using Adriamycin as a standard drug.
In vitro cytotoxicity study of the synthesized compounds 4e and 4k was performed against HeLa (Human cervical cancer cell line) by Sulforhodamine B (SRB) assay using Adriamycin as positive control. The images were captured using an Eclipse Ti-S Inverted Research Microscope (Nikon, Tokyo, Japan). Image processing software used was NIS-Elements.

[2] = tested on: Swiss albino mice; test: In vivo acute oral toxicity study and behavioral study (OECD guideline no. 425); set-up: key to Straub Tail / Pilo Erection / Convulsions / Normal Motor Activity / Stereotypy / Tremors / Sedation / Hypnosis / Muscle Spasms / Toxicity / Deaths / Eye Lacrimation / Salivation / Diarrhea / Respiration Problems: N: no; Y: yes
Procedure: In vivo acute oral toxicity study and gross behavioral studies of the newly synthesized compounds 4e and 4k is shown in Table 5.
425 using Swiss albino mice (18–22 gm weight) quarantined at animal house at Y.B. Chavan College of Pharmacy, Aurangabad IAEC approval number CPCSEA/IAEC/P’col-52/2015-16/115. Each group consists of six mice (overnight fasted) and kept in colony cage at 25 ± 2 °C with 55% relative humidity and 12 h of light and dark cycle. A specified dose of 100, 250, 500, 750, 1000, 1500 and 2000 mg/kg body weight of mice was administered orally as a single dose. The acute toxic symptoms and the behavioral changes produced by the synthesized compounds were observed continuously for 4 h periods at 8th, 12th and 24th h on set of toxic symptoms and the gross behavioral changes were also recorded. These animals were maintained for further 10 days with observation made daily.

[3] = tested on: Staphylococcus aureus (NCIM-2901); test: In vitro antibacterial activity, MIC; type: cell-based; settings: average of three readings; for MIC: Staphylococcus aureus, NCIM2901
Procedure: (§1) The newly synthesized compounds 4a–o were screened for their in vitro antibacterial activity against the three different bacterial strains. Minimum inhibitory concentration (MIC) values for antibacterial activity were determined by standard agar method using Ampicillin as standard drug. Dimethyl sulfoxide (DMSO) was used as solvent control. […] Compound 4e bearing a 2,4-difluoro group on the phenyl ring was 48 µg/mL for E. coli, 50 µg/mL for B. subtilis and 52 µg/mL for S. aureus.
(§2) All the synthesized compounds were screened for their in vitro antifungal and antibacterial activity. The antibacterial activity was evaluated against three human pathogenic bacterial strains: Escherichia coli (NCIM-2256), Bacillus subtilis (NCIM-2063) and Staphylococcus aureus (NCIM-2901). The antifungal activity was evaluated against seven human pathogenic fungal strains: Candida albicans (NCIM-3471), Candida glabrata (NCYC-388), Fusarium oxysporum (NCIM-1332), Aspergillus fumigates (NCIM-902), Aspergillus flavus (NCIM-539), Aspergillus niger (NCIM-1196) and Cryptococcus neoformans (NCIM-576), which are often encountered clinically. Miconazole was used as standard drug. Minimum inhibitory concentration (MIC) values were determined as per CLSI guidelines. Dimethyl sulfoxide (DMSO) was used as solvent control.
(§3) All the synthesized compounds 4a–o were screened for their in vitro antibacterial activity. Minimum inhibitory concentration (MIC) values were determined using method recommended by National Committee for Clinical Laboratory Standards (NCCLS). In vitro antibacterial activities of the synthesized compounds 4a–o were tested in Nutrient Broth (NB) for bacteria by the two fold serial dilution method. Seeded broth (broth containing microbial spores) was prepared in NB from 24 h old bacterial cultures on nutrient agar (Hi-media) at 37± 1 °C. The bacterial suspension was adjusted with sterile saline to a concentration of 1× 10^−4–10^−5 C.F.U. The synthesized compounds and standard drug Ampicillin were prepared by two fold serial dilutions to obtain the required concentrations of 400, 200, 100, 50, 25, 12.5, 6.25 and 3.13 μg/mL. The tubes were incubated in BOD incubators at 37± 1 °C for bacteria. The MICs were recorded by visual observations after 24 h (for bacteria) of incubation.

[4] = tested on: Escherichia coli (NCIM-2256); test: In vitro antibacterial activity, MIC; type: cell-based; settings: average of three readings; for MIC: Escherichia coli, NCIM2256
Procedure: as §1, §2, §3

[5] = tested on: Bacillus subtilis (NCIM-2063); test: In vitro antibacterial activity, MIC; type: cell-based; settings: average of three readings; for MIC: Bacillus subtilis, NCIM2063
Procedure: as §1, §2, §3

[6] = tested on: Candida albicans (NCIM-3471); test: In vitro antifungal activity, MIC, agar method (CLSI); type: cell-based; settings: NCIM3471, average of three readings
Procedure: (§4) The newly synthesized 3-((dicyclohexylamino)(substituted phenyl/heteryl)methyl)-4-hydroxy-2H-chromen-2-one derivatives 4a–o were screened for their in vitro antifungal activity against different yeast and filamentous fungal pathogens. […] Dimethyl sulfoxide (DMSO) was used as solvent control.
as §2, with “Miconazole was used as standard drug.” left out
(§5) Antifungal activity was determined as per CLSI (formerly, NCCLS) guidelines. […] The medium yeast nitrogen base was dissolved in phosphate buffer pH 7 and it was autoclaved at 110 °C for 10 min. With each set a growth control without the antifungal agent and solvent control DMSO were included. The fungal strains were freshly sub cultured on to Sabouraud dextrose agar (SDA) and incubated at 25 °C for 72 h. The fungal cells were suspended in sterile distilled water and diluted to get 10^5 cells/mL. Ten μL of the standardized suspension was inoculated onto the control plates and the media incorporated with the antifungal agents. The inoculated plates were incubated at 25 °C for 48 h. The readings were taken at the end of 48 h and 72 h. The MIC was the lowest concentration of drug preventing growth of macroscopically visible colonies on drug containing plates when there was visible growth on the drug free control plates.

[7] = tested on: Fusarium oxysporum (NCIM-1332); test: as above; type: cell-based; settings: NCIM1332, average of three readings
Procedure: as §4
as §2, with “Miconazole was used as standard drug.” left out
as §5

[8] = tested on: Cryptococcus neoformans (NCIM-576); test: as above; type: cell-based; settings: NCIM576, average of three readings
Procedure: as §4
as §2, with “Miconazole was used as standard drug.” left out
as §5

[9] = tested on: Aspergillus niger (NCIM-1196); test: as above; type: cell-based; settings: NCIM1196, average of three readings
Procedure: as §4
as §2, with “Miconazole was used as standard drug.” left out
as §5

[10] = tested on: Aspergillus fumigates (NCIM-902); test: as above; type: cell-based; settings: NCIM902, average of three readings
Procedure: as §4
as §2, with “Miconazole was used as standard drug.” left out
as §5

[11] = tested on: Aspergillus flavus (NCIM-539); test: as above; type: cell-based; settings: NCIM539, average of three readings
Procedure: as §4
as §2, with “Miconazole was used as standard drug.” left out
as §5

[12] = tested on: Candida glabrata (NCYC-388); test: as above; type: cell-based; settings: Nakaseomyces glabratus; average of three readings
Procedure: as §4
as §2, with “Miconazole was used as standard drug.” left out
as §5

[13] = Swiss albino mice, single oral dose 100–2000 mg/kg

| Structure (SMILES) | GI50 [1] [µg/mL] | MIC [3] [µg/mL] | MIC [4] [µg/mL] | MIC [5] [µg/mL] | MIC [6] [µg/mL] | MIC [7] [µg/mL] | MIC [8] [µg/mL] | MIC [9] [µg/mL] | MIC [10] [µg/mL] | MIC [11] [µg/mL] | MIC [12] [µg/mL] | melting point [°C] | other results |
| --- | --- | --- | --- | --- | --- | --- | --- | --- | --- | --- | --- | --- | --- |
| COc1cccc2c1C(=O)c1c(O)c3c(c(O)c1C2=O)C[C@@](O)(C(=O)CO)C[C@@H]3O[C@H]1C[C@H](N)[C@H](O)[C@H](C)O1 [Adriamycin, reference compound] | 0.5 (≈ 0.92 µM) |  |  |  |  |  |  |  |  |  |  |  |  |
| O=c1oc2ccccc2c(O)c1C(c1ccc(F)cc1F)N(C1CCCCC1)C1CCCCC1 (stereo not shown) [Compound 4e, 3-((Dicyclohexylamino)(2,4-difluorophenyl)methyl)-4-hydroxy-2H-chromen-2-one] | > 50 | 52 (≈ 111 µM) | 48 (≈ 103 µM) | 50 (≈ 107 µM) | 28 (≈ 59.9 µM) | 30 (≈ 64.2 µM) | 12 (≈ 25.7 µM) | 12 (≈ 25.7 µM) | 28 (≈ 59.9 µM) | 12 (≈ 25.7 µM) | 26 (≈ 55.6 µM) |  | Convulsions [2, 13]: N; Deaths [2, 13]: N; Diarrhea [2, 13]: N; Eye Lacrimation [2, 13]: N; Hypnosis [2, 13]: N; Muscle Spasms [2, 13]: N; Normal Motor Activity [2, 13]: Y; Pilo Erection [2, 13]: N; Respiration Problems [2, 13]: N; Salivation [2, 13]: N; Sedation [2, 13]: N; Stereotypy [2, 13]: N; Straub Tail [2, 13]: N; Toxicity [2, 13]: N; Tremors [2, 13]: N; lethal dose ([2]; oral, mice, body weight, no mortality up to 2000 mg/kg): above 2000 mg/kg; MIC Staphylococcus aureus [3]: 52 µg/mL (≈ 111 µM); MIC Escherichia coli [4]: 48 µg/mL (≈ 103 µM); MIC Bacillus subtilis [5]: 50 µg/mL (≈ 107 µM); cell inhibition HeLa ([1]; up to 50 µg/mL concentration, Figure 4): did not take place |
| CCOc1cc(C(c2c(O)c3ccccc3oc2=O)N(C2CCCCC2)C2CCCCC2)ccc1O (stereo not shown) [Compound 4l, 3-((Dicyclohexylamino)(3-ethoxy-4-hydroxyphenyl)methyl)-4-hydroxy-2H-chromen-2-one] |  | 54 (≈ 110 µM) | 56 (≈ 114 µM) | 54 (≈ 110 µM) | 25 (≈ 50.9 µM) | 28 (≈ 57 µM) | 12 (≈ 24.4 µM) | 12 (≈ 24.4 µM) | 36 (≈ 73.2 µM) | 15 (≈ 30.5 µM) | 28 (≈ 57 µM) | 140 to 142 |  |
| O=c1oc2ccccc2c(O)c1C(c1ccccn1)N(C1CCCCC1)C1CCCCC1 (stereo not shown) [Compound 4m, 3-((Dicyclohexylamino)(pyridin-2-yl)methyl)-4-hydroxy-2H-chromen-2-one] |  | 78 (≈ 180 µM) | 68 (≈ 157 µM) | 74 (≈ 171 µM) | 48 (≈ 111 µM) | 40 (≈ 92.5 µM) | 28 (≈ 64.7 µM) | 22 (≈ 50.9 µM) | 45 (≈ 104 µM) | 25 (≈ 57.8 µM) | 46 (≈ 106 µM) | 148 to 150 |  |
| O=c1oc2ccccc2c(O)c1C(c1cccs1)N(C1CCCCC1)C1CCCCC1 (stereo not shown) [Compound 4n, 3-((Dicyclohexylamino)(thiophen-2-yl)methyl)-4-hydroxy-2H-chromen-2-one] |  | 72 (≈ 165 µM) | 65 (≈ 149 µM) | 74 (≈ 169 µM) | 55 (≈ 126 µM) | 58 (≈ 133 µM) | 33 (≈ 75.4 µM) | 38 (≈ 86.8 µM) | 67 (≈ 153 µM) | 32 (≈ 73.1 µM) | 53 (≈ 121 µM) | 140 to 142 |  |
| O=c1oc2ccccc2c(O)c1C(c1ccco1)N(C1CCCCC1)C1CCCCC1 (stereo not shown) [Compound 4o, 3-((Dicyclohexylamino)(furan-2-yl)methyl)-4-hydroxy-2H-chromen-2-one] |  | 70 (≈ 166 µM) | 66 (≈ 157 µM) | 74 (≈ 176 µM) | 56 (≈ 133 µM) | 55 (≈ 130 µM) | 48 (≈ 114 µM) | 49 (≈ 116 µM) | 65 (≈ 154 µM) | 46 (≈ 109 µM) | 55 (≈ 130 µM) | 148 to 150 |  |
